Values quoted from earlier work as cited in patent publication US20100087702A1, “Composition and method to modify sperm fertility and female gender ratio in mammals” (priority 2008, published 2010).

How the values were obtained:
[1] = tested on: early-staged mouse embryos; settings: Williams, 1986
[2] = tested on: Hexose Monophosphate Shunt (HMS); settings: Tiffen et al., 1991

CCN(CC)c1cc2c(cc1C)Nc1ccc(N)cc1O2 [BCB, 2-methyl-3-diethylamino-7-amino phenoxazine]
toxicity of BCB and its metabolites [1]: relatively non-toxic | increase in oxidation of glucose through the HMS [2]: 15 fold
